Legend:
Format in all cases: in vivo
[1] = system: pigweed (Amaranthus retroflexus); assay: Test A pre-/postemergence: pigweed
In short: (§1)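 Rating scale 0–100 (100 = complete control), visual, ~10 days after application in the greenhouse. Applications: preemergence directed soil spray; postemergence at 1–2 leaves.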

[2] = system: ducksalad (Heteranthera limosa); assay: Test C flooded paddy test: ducksalad; details: scale 0 to 100 (0 no effect, 100 complete control)
In short: (§2)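 Plants at 2-leaf stage in pots flooded 3 cm above soil; compounds applied directly into the paddy water, depth maintained. Visual rating against controls after 13–15 days in greenhouse, scale 0 (no effect) to 100 (complete control).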

[3] = system: crabgrass, large (large crabgrass, Digitaria sanguinalis); assay: Test A pre-/postemergence: crabgrass, large
In short: as §1

[4] = system: barnyardgrass (Echinochloa crus-galli); assay: Test C flooded paddy test: barnyardgrass; details: scale 0 to 100 (0 no effect, 100 complete control)
In short: as §2

[5] = system: foxtail, giant (giant foxtail, Setaria faberii); assay: Test A pre-/postemergence: foxtail, giant
In short: as §1

[6] = system: rice (Oryza sativa); assay: Test C flooded paddy test: rice; details: scale 0 to 100 (0 no effect, 100 complete control)
In short: as §2

[7] = system: velvetleaf (Abutilon theophrasti); assay: Test A pre-/postemergence: velvetleaf
In short: as §1

[8] = system: barnyardgrass (Echinochloa crus-galli); assay: Test A pre-/postemergence: barnyardgrass
In short: as §1

[9] = system: sedge, umbrella (small-flower umbrella sedge, Cyperus difformis); assay: Test C flooded paddy test: sedge, umbrella; details: scale 0 to 100 (0 no effect, 100 complete control)
In short: as §2

[10] = system: morningglory (Ipomoea spp.); assay: Test A pre-/postemergence: morningglory
In short: as §1

[11] = system: corn (Zea mays); assay: Test A pre-/postemergence: corn
In short: as §1

[12] = system: wheat (Triticum aestivum); assay: Test A pre-/postemergence: wheat
In short: as §1

[13] = Postemergence, 125 g ai/ha, 0 to 100 scale, 0 is no effect, 100 is complete control
[14] = Postemergence, 500 g ai/ha, visual rating on 0 to 100 scale (0 no effect, 100 complete control), approximately ten days
[15] = Preemergence, 125 g ai/ha, 0 to 100 scale where 0 is no effect and 100 is complete control
[16] = Preemergence, 500 g ai/ha, 0 to 100 scale, 0 is no effect, 100 is complete control
[17] = Flood (flooded paddy test), 125 g ai/ha, visual rating after 13 to 15 days
[18] = Flood (flooded paddy test), 250 g ai/ha, visual rating after 13 to 15 days
[19] = Preemergence, 125 g ai/ha, 0 to 100 scale (0 no effect, 100 complete control)
[20] = Postemergence, 1000 g ai/ha, visual rating on 0 to 100 scale (0 no effect, 100 complete control), approximately ten days
[21] = Preemergence, 1000 g ai/ha, 0 to 100 scale, 0 is no effect, 100 is complete control

In the case of `Cc1nn(-c2ccc(C(F)(F)F)cn2)nc1C(=O)c1cccc(C(F)(F)F)c1` [Compound 107], the “Pigweed plant response rating” value [1, 13] is reported as 90, the “Pigweed plant response rating” value [1, 14] is reported as 100 and the “Plant response rating, Pigweed” value [1, 15] is reported as 70. The “Plant response rating, Pigweed” value [1, 16] was 100, the “Plant response rating, Ducksalad” value [2, 17] was 20 and the “Plant response rating, Ducksalad” value [2, 18] was 40. The “Plant response rating, Ducksalad” value ([2]; Flood, 31 g ai/ha) was 0, the “Plant response rating, Ducksalad” value ([2]; Flood, 62 g ai/ha) was 0 and the “Crabgrass, Large plant response rating” value [3, 13] was 60. The “Crabgrass, Large plant response rating” value [3, 14] was 90, the “Plant response rating, Crabgrass, Large” value [3, 19] was 100 and the “Plant response rating, Crabgrass, Large” value [3, 16] was 100. For the same compound, the “Plant response rating, Barnyardgrass” value [4, 17] was 20, the “Plant response rating, Barnyardgrass” value [4, 18] was 25 and the “Plant response rating, Barnyardgrass” value ([4]; Flood, 31 g ai/ha) was 0. For the same compound, the “Plant response rating, Barnyardgrass” value ([4]; Flood, 62 g ai/ha) was 15, the “Foxtail, Giant plant response rating” value [5, 13] was 40 and the “Foxtail, Giant plant response rating” value [5, 14] was 90. For the same compound, the “Plant response rating, Foxtail, Giant” value [5, 15] was 90, the “Plant response rating, Foxtail, Giant” value [5, 16] was 100 and the “Plant response rating, Rice” value [6, 17] was 0. For the same compound, the “Plant response rating, Rice” value [6, 18] was 25, the “Plant response rating, Rice” value ([6]; Flood, 31 g ai/ha) was 0 and the “Plant response rating, Rice” value ([6]; Flood, 62 g ai/ha) was 0. For the same compound, the “Velvetleaf plant response rating” value [7, 13] was 40, the “Velvetleaf plant response rating” value [7, 14] was 50 and the “Plant response rating, Velvetleaf” value [7, 15] was 10. For the same compound, the “Plant response rating, Velvetleaf” value [7, 16] was 10, the “Barnyardgrass plant response rating” value [8, 13] was 30 and the “Barnyardgrass plant response rating” value [8, 14] was 60. The “Plant response rating, Barnyardgrass” value [8, 19] was 30, the “Plant response rating, Barnyardgrass” value [8, 16] was 80 and the “Plant response rating, Sedge, Umbrella” value [9, 17] was 60. For the same compound, the “Plant response rating, Sedge, Umbrella” value [9, 18] was 80, the “Plant response rating, Sedge, Umbrella” value ([9]; Flood, 31 g ai/ha) was 0 and the “Plant response rating, Sedge, Umbrella” value ([9]; Flood, 62 g ai/ha) was 40. The “Morningglory plant response rating” value [10, 13] was 70, the “Morningglory plant response rating” value [10, 14] was 80 and the “Plant response rating, Morningglory” value [10, 15] was 20. For the same compound, the “Plant response rating, Morningglory” value [10, 16] was 30, the “Corn plant response rating” value [11, 13] was 20 and the “Corn plant response rating” value [11, 14] was 30. For the same compound, the “Plant response rating, Corn” value [11, 19] was 0, the “Plant response rating, Corn” value [11, 16] was 10 and the “Wheat plant response rating” value [12, 13] was 20. The “Wheat plant response rating” value [12, 14] was 40, the “Plant response rating, Wheat” value [12, 15] was 0 and the “Plant response rating, Wheat” value [12, 16] was 0.
For `Cc1nn(-c2ccc(C(F)(F)F)cn2)nc1Oc1cccc(C(F)(F)F)c1` [Compound 109], the “Pigweed plant response rating” value [1, 20] was 100, the “Pigweed plant response rating” value [1, 21] was 100 and the “Plant response rating, Ducksalad” value [2, 17] was 60. The “Plant response rating, Ducksalad” value [2, 18] was 80, the “Plant response rating, Ducksalad” value ([2]; Flood, 31 g ai/ha) was 0 and the “Plant response rating, Ducksalad” value ([2]; Flood, 62 g ai/ha) was 20. The “Crabgrass, Large plant response rating” value [3, 20] was 90, the “Crabgrass, Large plant response rating” value [3, 21] was 100 and the “Plant response rating, Barnyardgrass” value [4, 17] was 40. For the same compound, the “Plant response rating, Barnyardgrass” value [4, 18] was 75, the “Plant response rating, Barnyardgrass” value ([4]; Flood, 31 g ai/ha) was 0 and the “Plant response rating, Barnyardgrass” value ([4]; Flood, 62 g ai/ha) was 20. The “Foxtail, Giant plant response rating” value [5, 20] was 90, the “Foxtail, Giant plant response rating” value [5, 21] was 100 and the “Plant response rating, Rice” value [6, 17] was 15. For the same compound, the “Plant response rating, Rice” value [6, 18] was 25, the “Plant response rating, Rice” value ([6]; Flood, 31 g ai/ha) was 15 and the “Plant response rating, Rice” value ([6]; Flood, 62 g ai/ha) was 15. The “Velvetleaf plant response rating” value [7, 20] was 80, the “Velvetleaf plant response rating” value [7, 21] was 30 and the “Barnyardgrass plant response rating” value [8, 20] was 90. The “Barnyardgrass plant response rating” value [8, 21] was 100, the “Plant response rating, Sedge, Umbrella” value [9, 17] was 85 and the “Plant response rating, Sedge, Umbrella” value [9, 18] was 85. The “Plant response rating, Sedge, Umbrella” value ([9]; Flood, 31 g ai/ha) was 38, the “Plant response rating, Sedge, Umbrella” value ([9]; Flood, 62 g ai/ha) was 63 and the “Morningglory plant response rating” value [10, 20] was 90. The “Morningglory plant response rating” value [10, 21] was 50, the “Corn plant response rating” value [11, 20] was 90 and the “Corn plant response rating” value [11, 21] was 40. For the same compound, the “Wheat plant response rating” value [12, 20] was 50 and the “Wheat plant response rating” value [12, 21] was 20.
`Cc1nn(-c2ccc(C(F)(F)F)cc2)nc1Oc1cccc(C(F)(F)F)c1` [Compound 111] was tested, and the “Pigweed plant response rating” value [1, 13] was 90, the “Pigweed plant response rating” value [1, 14] was 90 and the “Plant response rating, Pigweed” value [1, 15] was 70. The “Plant response rating, Pigweed” value [1, 16] was 90, the “Plant response rating, Ducksalad” value [2, 17] was 70 and the “Plant response rating, Ducksalad” value [2, 18] was 80. For the same compound, the “Plant response rating, Ducksalad” value ([2]; Flood, 31 g ai/ha) was 0, the “Plant response rating, Ducksalad” value ([2]; Flood, 62 g ai/ha) was 30 and the “Crabgrass, Large plant response rating” value [3, 13] was 90. The “Crabgrass, Large plant response rating” value [3, 14] was 90, the “Plant response rating, Crabgrass, Large” value [3, 15] was 80 and the “Plant response rating, Crabgrass, Large” value [3, 16] was 100. For the same compound, the “Plant response rating, Barnyardgrass” value [4, 17] was 20, the “Plant response rating, Barnyardgrass” value [4, 18] was 35 and the “Plant response rating, Barnyardgrass” value ([4]; Flood, 31 g ai/ha) was 0. For the same compound, the “Plant response rating, Barnyardgrass” value ([4]; Flood, 62 g ai/ha) was 0, the “Foxtail, Giant plant response rating” value [5, 13] was 80 and the “Foxtail, Giant plant response rating” value [5, 14] was 90. The “Plant response rating, Foxtail, Giant” value [5, 15] was 70, the “Plant response rating, Foxtail, Giant” value [5, 16] was 100 and the “Plant response rating, Rice” value [6, 17] was 25. For the same compound, the “Plant response rating, Rice” value [6, 18] was 30, the “Plant response rating, Rice” value ([6]; Flood, 31 g ai/ha) was 0 and the “Plant response rating, Rice” value ([6]; Flood, 62 g ai/ha) was 0. The “Velvetleaf plant response rating” value [7, 13] was 20, the “Velvetleaf plant response rating” value [7, 14] was 70 and the “Plant response rating, Velvetleaf” value [7, 15] was 0. For the same compound, the “Plant response rating, Velvetleaf” value [7, 16] was 50, the “Barnyardgrass plant response rating” value [8, 13] was 20 and the “Barnyardgrass plant response rating” value [8, 14] was 30. The “Plant response rating, Barnyardgrass” value [8, 15] was 20, the “Plant response rating, Barnyardgrass” value [8, 16] was 80 and the “Plant response rating, Sedge, Umbrella” value [9, 17] was 80. For the same compound, the “Plant response rating, Sedge, Umbrella” value [9, 18] was 85, the “Plant response rating, Sedge, Umbrella” value ([9]; Flood, 31 g ai/ha) was 45 and the “Plant response rating, Sedge, Umbrella” value ([9]; Flood, 62 g ai/ha) was 65. For the same compound, the “Morningglory plant response rating” value [10, 13] was 70, the “Morningglory plant response rating” value [10, 14] was 100 and the “Plant response rating, Morningglory” value [10, 15] was 0. For the same compound, the “Plant response rating, Morningglory” value [10, 16] was 30, the “Corn plant response rating” value [11, 13] was 20 and the “Corn plant response rating” value [11, 14] was 30. The “Plant response rating, Corn” value [11, 15] was 0, the “Plant response rating, Corn” value [11, 16] was 20 and the “Wheat plant response rating” value [12, 13] was 10. The “Wheat plant response rating” value [12, 14] was 40, the “Plant response rating, Wheat” value [12, 15] was 0 and the “Plant response rating, Wheat” value [12, 16] was 0.

Reference: patent US9302999B2, “Substituted triazoles as herbicides” (E. I. DU PONT DE NEMOURS AND COMPANY, priority 2012, dated 2016)
